Test system: anti-Rha antibodies in normal human serum
Assay: Competitive ELISA assay with free monosaccharides, BSA-R1 immobilized
Assay type: binding
Settings: free monosaccharide 200 mM to 12.5 mM; human serum 1:2000; anti-human IgG detection
Method: Competitive ELISA assay. To further verify the specific antibody against Rha epitopes, inhibition ELISA was performed by immobilizing Rha conjugated BSA (BSA-R1) (10 μg ml^−1) on the 96-well plate, and free D-mannose (Man), D-glucose (Glc), N-Acetyl-Dglucosamine (GlcNAc), D-xylose (Xyl), L-fucose (Fuc), N-Acetyl-D-galactosamine (GalNAc), D-galactose (Gal) and L-rhamnose (Rha) were used as competing antigens (2-fold dilutions from 200 mM to 12.5 mM). After coated with BSA-R1 at 4° C. overnight, the solution was depleted and washed by PBST for three times (three minutes each time). Then, the plate was blocked with 5% (w/v) non-fat milk (PBST) in RT for 1.5 h, and rinsed by PBST once. Normal human serum diluted (1:2000) previously, containing different free monosaccharide at different concentration, was added into the 96-well plate with 0.1 mL per well. After 2 h incubation, the plate was rinsed by PBST 3 times. Then 0.1 mL Horseradish Peroxidase (HRP)-conjugated antihuman IgG antibody (1:3000) was added into each well and stayed in RT for 1 h. Finally, after the plates were washed, enzyme substrate tetramethylbenzidine (TMB) was added and allowed to react for 10-20 min before the enzymatic reaction was terminated by adding 1N HCl and the absorbance was read at wavelength of 450 nm in a FlexStation® 3 Microplate Reader (Molecular devices).

**Q.** With `C[C@H](O)[C@H](O)[C@@H](O)[C@@H](O)C=O` [Rha, L-rhamnose] as the compound, how does the “competition for antibodies in human serum” value read?
**A.** The value was “pulled down the antibodies”.

Reference: patent US20130149331A1, “RHAMNOSE AND FORSSMAN CONJUGATED IMMUNOGENIC AGENTS” (priority 2011, published 2013)
